Measured values: patent US10759758B2, “Polymorphic form of N-{6-(hydroxypropan-2-yl)-2-[2-(methylsulphonyl)ethyl]-2H-indazol-5-yl}-6-(trifluoromethyl)pyridine-2-carboxamide” (Bayer Pharma Aktiengesellschaft, priority 2016, dated 2020)

Assay: Thermodynamic stability of the solid forms of compound (I)
Type: physicochemical
Settings: compared with the other solid forms of compound (I)

thermodynamic stability among solid forms: thermodynamically stable form
Compound: CC(C)(O)c1cc2nn(CCS(C)(=O)=O)cc2cc1NC(=O)c1cccc(C(F)(F)F)n1 [Polymorphic form B, N-{6-(2-Hydroxypropan-2-yl)-2-[2-(methylsulphonyl)ethyl]-2H-indazol-5-yl}-6-(trifluoromethyl)pyridine-2-carboxamide]
